{"source": "patent US8357377B2", "about": "“Cyclodextrin-based materials, compositions and uses related thereto” (priority 2002, dated 2013)", "assay": "Rat PVA sponge model, morphological analysis (Masson's Trichrome sections)", "design": "species or system Harlan Sprague-Dawley rats", "conditions": "in vivo", "description": "Six small incisions (0.5 cm) were performed and polyvinyl alcohol (PVA, M-PACTO®) sponges were subcutaneously implanted on the ventral side of male Harlan Sprague-Dawley rats.\nFour days after implantation, test and control materials were diluted with vPBS and liquid collagen (Cohesion Technologies®) or 58 kD Cyclodextrin (CD)-Adamantane matrix as described above and injected into PVA sponges. Final collagen formulation was 1.8 mg/mL, pHed with NaOH, and brought up to volume with vPBS. Final 58 kD Cyclodextrin (CD)-Adamantane matrix formulation was 100 mg/mL. 200 μL total volume of test reagent was delivered to each sponge. Animals were sacrificed and sponges were removed 2 days after injections. Sponges were cut into three pieces and the majority of the sponge (˜70-80%) was frozen in liquid nitrogen and stored at −80° C. for QPCR and QRT-PCR analysis. A small portion of the sponge was fixed in 4% PFA at 4° C. for 18 hours, paraffin embedded, and sectioned (5 μm). Sections were stained using Masson's Trichrome (cells=black, vasculature=red, and collagen=blue) and Hematoxylin-Eosin methods. Tissue sections were analyzed microscopically for gross histology by two separate investigators.\n5 μm, Masson's Trichrome stained paraffin sections were analyzed by two separate observers. Sponge characteristics were qualitatively evaluated by the following criteria: Minimal<Light<Moderate<Heavy<Severe for all categories except Capsule Size. The following criteria were used for evaluation of Capsule Size: Thin<Moderate<Thick<Very Thick.", "data": [{"substance": "Collagen", "values": [{"measurement": "Capsule Size", "value": "Thin"}, {"measurement": "Immune Response", "value": "Minimal"}, {"measurement": "Immune response (gross histological examination)", "value": "minimal immune response"}]}]}
